Source: patent publication US9567524B2, “Polymerizable liquid crystal compound, and compensation film, antireflective film, and display device including the same” (SAMSUNG ELECTRONICS CO., LTD., priority 2015, dated 2017)

Assay: Thermogravimetric analysis (TGA), thermal stability
Format: physicochemical
Details: Trios V3.0, 10° C./min, N2 atmosphere; FIG. 7
Protocol: Thermogravimetric analysis (TGA) and differential scanning calorimetry (DSC) analysis of the polymerizable liquid crystal compound according to Synthesis Example 1 are performed by using Trios V3.0 (TA Instrument, 10° C./min, N2 atmosphere). FIG. 7 is a drawing showing the thermogravimetric analysis of the polymerizable liquid crystal compound 1a-5 according to Synthesis Example 1, and FIG. 8 is a drawing showing the differential scanning calorimetry (DSC) analysis of the polymerizable liquid crystal compound 1a-5 according to Synthesis Example 1.
Referring to FIG. 7, the polymerizable liquid crystal compound 1a-5 of Synthesis Example 1 is decomposed at a temperature of greater than or equal to 300° C.

In the case of `C=CC(=O)OCCCOc1ccc(C(=O)OCc2ccc(C(=O)Oc3ccc(OC(=O)c4ccc(COC(=O)c5ccc(OCCCOC(=O)C=C)cc5)cc4)cc3)cc2)cc1` [Compound 1a-5], the “Decomposition temperature (TGA)” value is reported as “greater than or equal to 300 °C”.
